Results as given in article PMC12198282, “Application of a high-density microelectrode array assay using a 3D human iPSC-derived brain microphysiological system model for in vitro neurotoxicity screening of environmental compounds” (Archives of Toxicology, 2025).
Entries after “also recorded” stand apart in the source; their conditions may differ. Where two headings read alike, the source gives them in different places.

Columns and labels:
[1] = test system: human iPSC-derived 3D BrainSpheres; assay: BrainSphere MEA assay (HD-MEA, 13-day exposure, concentration-response); type: cell-based; conditions: for EC (benchmark response 1.349 SD): 312 h; for AC50: concentration at 50% maximal activity, Supplement 3 prints it also for curves with hit call 0; on hitc Mean.Spheroid.Burst.ISI: key: 1 (active); 0 (inactive); on hitc Mean.Spheroid.Burst.Peak.Firing.Rate: key: 1 (active); 0 (inactive); on hitc Mean.Spheroid.Firing.Rate: key: 1 (active); 0 (inactive); on hitc Mean.Spheroid.IBI: key: 1 (active); 0 (inactive); on hitc Mean.Spheroid.Nonburst.ISI: key: 1 (active); 0 (inactive); on hitc Mean.Spheroid.Spikes.per.Burst.per.Electrode: key: 1 (active); 0 (inactive); on hitc Mean.Spheroid.Spikes.per.Burst: key: 1 (active); 0 (inactive); on hitc Spheroid.Burst.Frequency: key: 1 (active); 0 (inactive); on hitc Spheroid.Spike.Amplitude.90th.Percentile: key: 1 (active); 0 (inactive)
Method: A volume of 1 ml of Tergazyme (1% solution in deionized water) was added to each well of the MaxTwo 6-Well Plate (MaxWell Biosystems) and incubated overnight under constant gyratory shaking (88 RPM) at 37 °C and 5% CO2. The next day, Tergazyme solution was removed, and plates were washed with distilled water and ethanol. After remaining ethanol was evaporated, wells were washed with PBS. Then, 200 µl of Poly-D-Lysine (Gibco, A38904 - 01) was added on top of the electrodes and incubated at 37 °C and 5% CO2 for 3 h (humidified). Poly-D-Lysine was then removed, and wells were coated with 100 µl of 0.1 mg/ml laminin coating solution (Sigma-Aldrich, L2020 - 1 mg) and incubated for 2 h at 37 ℃ and 5% CO2 (humidified). The laminin was removed after incubation. Using a 1 ml micropipette, 1 ml of medium containing BrainSpheres (7 weeks differentiated), approximately 25 BrainSpheres per ml, was plated on top of the HD-MEA chip (Fig. 1A). Afterwards, the plate was placed in an incubator at 37 °C and 5% CO2 and moved in circles to accumulate the BrainSpheres on top of the electrode area (Fig. 1A). The plate was kept in an incubator (humidified) for 2 days to allow attachment of the BrainSpheres with no gyratory shaking of the plates.
The MaxTwo high-density microelectrode array system (MaxWell Biosystems AG, Zurich, Switzerland) was used to measure neural activity with MaxTwo 6-well plates, where every well includes an integrated chip with 26,400 platinum electrodes arranged in an area of 3.85 × 2.10 mm^2 ([…]) (Muller et al. [2015]). The data were recorded and analyzed with the MaxLab Live Software (version 22.2.22). First, the MaxLab live ActivityScan Assay was used to identify the activity and positioning of the BrainSpheres on the array by scanning all the 26,400 electrodes in 29 configurations in a well (Assay Parameters: Configuration = Full; Recording time per configuration = 60 s (s)). The settings gain = 512, high-pass-filter (HPF): ~ 1 Hz and spike threshold = 5 X root-mean square (RMS) noise were used for all HD-MEA recordings. Circular regions of interest (ROI) were manually selected in the Activity Map where neuronal activity was apparent by an increased activity (Fig. 2). Over the course of the 13-day experiment, the same selected regions and electrodes were measured using the MaxLab Live Network Assay (600 s recording time).
A custom analysis framework was used to extract the MaxLab Live neuronal metrics for the individual BrainSpheres. For this, electrodes comprising a single ROI (i.e., individual BrainSphere; Fig. 2D) were grouped using distance-based clustering (fcluster method of Scipy library, Python 3.7) and neural metrics were calculated for the clustered electrodes for every ROI separately. Figure 2E presents a raster plot illustrating the activity associated with individual Regions of Interest (ROIs). […] Ten MaxLab Live neural metrics (endpoints) were evaluated from the MaxLab live ActivityScan and Network Assay in this study. See Table 3 for the endpoint definitions, tuned parameters, and activity type (general versus network connectivity).
The BrainSphere MEA assay measured changes in neural activity during a 13-day chemical exposure. The first recording day of the concentration–response screening protocol (day of exposure (DOE) 0) occurred after 7 weeks of BrainSphere differentiation, 48 h after plating on HD-MEA plates (Fig. 1B). The study included at least three biological replicates (one well per plate) from separate experiments (e.g., three different plates on three different days) and each well included multiple BrainSpheres which were considered technical replicates.

[2] = test system: 2D rat cortical cultures; conditions: cited from earlier work; for AC50: rNFA mc5; on hitc CCTE Shafer MEA dev active electrodes number: key: 1 (active); 0 (inactive); on hitc CCTE Shafer MEA dev burst duration mean: key: 1 (active); 0 (inactive); on hitc CCTE Shafer MEA dev burst rate: key: 1 (active); 0 (inactive); on hitc CCTE Shafer MEA dev bursting electrodes number: key: 1 (active); 0 (inactive); on hitc CCTE Shafer MEA dev correlation coefficient mean: key: 1 (active); 0 (inactive); on hitc CCTE Shafer MEA dev firing rate mean: key: 1 (active); 0 (inactive); on hitc CCTE Shafer MEA dev inter network spike interval mean: key: 1 (active); 0 (inactive); on hitc CCTE Shafer MEA dev interburst interval mean: key: 1 (active); 0 (inactive); on hitc CCTE Shafer MEA dev mutual information norm: key: 1 (active); 0 (inactive); on hitc CCTE Shafer MEA dev network spike duration std: key: 1 (active); 0 (inactive); on hitc CCTE Shafer MEA dev network spike number: key: 1 (active); 0 (inactive); on hitc CCTE Shafer MEA dev network spike peak: key: 1 (active); 0 (inactive); on hitc CCTE Shafer MEA dev per burst interspike interval: key: 1 (active); 0 (inactive); on hitc CCTE Shafer MEA dev per burst spike percent: key: 1 (active); 0 (inactive); on hitc CCTE Shafer MEA dev per network spike spike number mean: key: 1 (active); 0 (inactive); on hitc CCTE Shafer MEA dev per network spike spike percent: key: 1 (active); 0 (inactive); on hitc CCTE Shafer MEA dev spike duration mean: key: 1 (active); 0 (inactive)
[3] = Homo sapiens, tcplfit2 BMD at benchmark response (1.349*SD of baseline controls), read-out: BMD Mean.Spheroid.Burst.ISI
[4] = Homo sapiens, tcplfit2 BMD at benchmark response (1.349*SD of baseline controls), read-out: BMD Mean.Spheroid.Nonburst.ISI
[5] = Homo sapiens, read-out: ac50 Mean.Spheroid.Burst.Duration
[6] = Homo sapiens, read-out: ac50 Mean.Spheroid.Burst.ISI
[7] = Homo sapiens, read-out: ac50 Spheroid.Burst.Frequency
[8] = AUC over 13-day exposure, tcplfit2
[9] = tcplfit2 BMD at benchmark response (1.349*SD of baseline controls)
[10] = tcplfit2 output ACC, activity cutoff in Supplemental Table 1

CCCC(CCC)C(=O)O [Sodium valproate]
Bioactivity across the 10 MEA endpoints of the BrainSphere MEA assay (in words) [1]: inactive across all metrics; also recorded: inactive in the BrainSphere MEA
EC (benchmark response 1.349 SD) [1, 3]: 85 µM
EC (benchmark response 1.349 SD) [1, 4]: 213 µM
AC50 [1, 5]: 45 µM
AC50 [1, 6]: 85 µM
AC50 [1, 7]: 84 µM
Number of active endpoints in the rNFA ([2]; of 17 MEA endpoints, ref Brown et al. [2016], Carstens et al. [2022], Frank et al. [2017b], Shafer et al. [2019], ToxCast invitrodb (v4.2)): two
AC50 ([2]; aenm per_network_spike_spike_number_mean, read-out: ac50 CCTE_Shafer_MEA_dev_per_network_spike_spike_number_mean): 576 µM
AC50 ([2]; aenm per_network_spike_spike_percent, read-out: ac50 CCTE_Shafer_MEA_dev_per_network_spike_spike_percent): 488 µM
hitc CCTE_Shafer_MEA_dev_active_electrodes_number ([2]; rNFA mc5 hit call, aenm active_electrodes_number): 0
hitc CCTE_Shafer_MEA_dev_burst_duration_mean ([2]; rNFA mc5 hit call, aenm burst_duration_mean): 0
hitc CCTE_Shafer_MEA_dev_burst_rate ([2]; rNFA mc5 hit call, aenm burst_rate): 0
hitc CCTE_Shafer_MEA_dev_bursting_electrodes_number ([2]; rNFA mc5 hit call, aenm bursting_electrodes_number): 0
hitc CCTE_Shafer_MEA_dev_correlation_coefficient_mean ([2]; rNFA mc5 hit call, aenm correlation_coefficient_mean): 0
hitc CCTE_Shafer_MEA_dev_firing_rate_mean ([2]; rNFA mc5 hit call, aenm firing_rate_mean): 0
hitc CCTE_Shafer_MEA_dev_inter_network_spike_interval_mean ([2]; rNFA mc5 hit call, aenm inter_network_spike_interval_mean): 0
hitc CCTE_Shafer_MEA_dev_interburst_interval_mean ([2]; rNFA mc5 hit call, aenm interburst_interval_mean): 0
hitc CCTE_Shafer_MEA_dev_mutual_information_norm ([2]; rNFA mc5 hit call, aenm mutual_information_norm): 0
hitc CCTE_Shafer_MEA_dev_network_spike_duration_std ([2]; rNFA mc5 hit call, aenm network_spike_duration_std): 0
hitc CCTE_Shafer_MEA_dev_network_spike_number ([2]; rNFA mc5 hit call, aenm network_spike_number): 0
hitc CCTE_Shafer_MEA_dev_network_spike_peak ([2]; rNFA mc5 hit call, aenm network_spike_peak): 0
hitc CCTE_Shafer_MEA_dev_per_burst_interspike_interval ([2]; rNFA mc5 hit call, aenm per_burst_interspike_interval): 0
hitc CCTE_Shafer_MEA_dev_per_burst_spike_percent ([2]; rNFA mc5 hit call, aenm per_burst_spike_percent): 0
hitc CCTE_Shafer_MEA_dev_per_network_spike_spike_number_mean ([2]; rNFA mc5 hit call, aenm per_network_spike_spike_number_mean): 1
hitc CCTE_Shafer_MEA_dev_per_network_spike_spike_percent ([2]; rNFA mc5 hit call, aenm per_network_spike_spike_percent): 1
hitc CCTE_Shafer_MEA_dev_spike_duration_mean ([2]; rNFA mc5 hit call, aenm spike_duration_mean): 0
Concentrations at which active in the rNFA ([2]; ref Brown et al. [2016], Carstens et al. [2022], Frank et al. [2017b], Shafer et al. [2019], ToxCast invitrodb (v4.2)): exceeding 450 µM

ClC1=C(Cl)[C@]2(Cl)[C@@H]3[C@@H]4C[C@@H]([C@H]5O[C@@H]45)[C@@H]3[C@@]1(Cl)C2(Cl)Cl [Dieldrin]
Difference of minimum potency between BrainSphere MEA assay and rNFA ([1]; 5th percentile of AC50 values by chemical, above 0.5 = more potent in the rNFA): more than 0.5 log10 µM
hitc Mean.Spheroid.Burst.ISI [1, 8]: 1
hitc Mean.Spheroid.Burst.Peak.Firing.Rate [1, 8]: 1
hitc Mean.Spheroid.Firing.Rate [1, 8]: 1
hitc Mean.Spheroid.IBI [1, 8]: 1
hitc Mean.Spheroid.Nonburst.ISI [1, 8]: 0
hitc Mean.Spheroid.Spikes.per.Burst [1, 8]: 1
hitc Mean.Spheroid.Spikes.per.Burst.per.Electrode [1, 8]: 1
hitc Spheroid.Burst.Frequency [1, 8]: 1
hitc Spheroid.Spike.Amplitude.90th.Percentile [1, 8]: 1
EC50 ([1]; Homo sapiens, 5th percentile across active AC50 values per chemical, read-out: Minimum potency): 9.51 µM
EC (benchmark response 1.349 SD) [1, 3]: 9.9 µM
EC (benchmark response 1.349 SD) [1, 4]: 45 µM
AC50 [1, 5]: 13 µM
AC50 [1, 6]: 12 µM
AC50 ([1]; Homo sapiens, read-out: ac50 Mean.Spheroid.Burst.Peak.Firing.Rate): 11.7 µM
AC50 ([1]; Homo sapiens, read-out: ac50 Mean.Spheroid.Firing.Rate): 9.5 µM
AC50 ([1]; Homo sapiens, read-out: ac50 Mean.Spheroid.IBI): 28 µM
AC50 ([1]; Homo sapiens, read-out: ac50 Mean.Spheroid.Nonburst.ISI): 45 µM
AC50 ([1]; Homo sapiens, read-out: ac50 Mean.Spheroid.Spikes.per.Burst): 12.3 µM
AC50 ([1]; Homo sapiens, read-out: ac50 Mean.Spheroid.Spikes.per.Burst.per.Electrode): 11 µM
AC50 [1, 7]: 9.6 µM
AC50 ([1]; Homo sapiens, read-out: ac50 Spheroid.Spike.Amplitude.90th.Percentile): 21 µM
EC50 ([1]; Homo sapiens, mean across active AC50 values per chemical, read-out: Mean potency): 14.3 µM
AC50 ([1]; read-out: ac50 Mean.Spheroid.Burst.Duration): 12.9 µM
AC50 ([1]; read-out: ac50 Mean.Spheroid.Burst.ISI): 12.2 µM
AC50 ([1]; read-out: ac50 Mean.Spheroid.Firing.Rate): 9.45 µM
AC50 ([1]; read-out: ac50 Mean.Spheroid.IBI): 28.2 µM
AC50 ([1]; read-out: ac50 Mean.Spheroid.Spikes.per.Burst.per.Electrode): 11.2 µM
AC50 ([1]; read-out: ac50 Spheroid.Burst.Frequency): 9.6 µM
AC50 ([1]; read-out: ac50 Spheroid.Spike.Amplitude.90th.Percentile): 20.8 µM
Percent active ([1]; metrics active out of the total number of metrics screened): 90%
BMD Mean.Spheroid.Burst.Peak.Firing.Rate [1, 9]: 9.9 µM
BMD Mean.Spheroid.Firing.Rate [1, 9]: 9.3 µM
BMD Mean.Spheroid.IBI [1, 9]: 27 µM
BMD Mean.Spheroid.Spikes.per.Burst [1, 9]: 11 µM
BMD Mean.Spheroid.Spikes.per.Burst.per.Electrode [1, 9]: 9.9 µM
BMD Spheroid.Burst.Frequency [1, 9]: 9.8 µM
BMD Spheroid.Spike.Amplitude.90th.Percentile [1, 9]: 17 µM
ACC Mean.Spheroid.Burst.ISI [1, 10]: 8.4 µM
ACC Mean.Spheroid.Burst.Peak.Firing.Rate [1, 10]: 9.6 µM
ACC Mean.Spheroid.Firing.Rate [1, 10]: 11 µM
ACC Mean.Spheroid.IBI [1, 10]: 28 µM
ACC Mean.Spheroid.Nonburst.ISI [1, 10]: 52 µM
ACC Mean.Spheroid.Spikes.per.Burst [1, 10]: 13 µM
ACC Mean.Spheroid.Spikes.per.Burst.per.Electrode [1, 10]: 10 µM
ACC Spheroid.Burst.Frequency [1, 10]: 9.2 µM
ACC Spheroid.Spike.Amplitude.90th.Percentile [1, 10]: 20 µM
Hits ([1]; total number of active endpoints out of 10 MEA activity metrics, 13-day exposure): 9
